The numbers were not newly measured in PubChem BioAssay AID1259409 (Chemical Carcinogenesis Research Information System (CCRIS), 2018), which cites them from elsewhere.

For this data set, the system named is rodent chemically induced tumor inhibition, incidence and multiplicity. Put plainly: CCRIS tumor inhibitor studies.

Each structure is given as a SMILES string.

As for `c1ccc(Cn2ccnc2)cc1`, the “tumour outcome (control, treated, inhibition, significance)” value reads like this: (Carcinogen: 7,12-DIMETHYLBENZ[A]ANTHRACENE, 57-97-6, Dose [Inhibitor]: 100 UG IN 0.2 ML ACETONE ONCE 5 MIN BEFORE CARCINOGEN TREATMENT (STUDY DURATION: 31 WK), Route [Inhibitor]: DERMAL, Species: MOUSE, Strain/Sex: CD-1/FEMALE, Target Tissue: Type of Lesion: SKIN: PAPILLOMA, Dose [Carcinogen]: 10 NMOL IN 0.2 ML ACETONE ONCE, Promoter: 12-O-TETRADECANOYLPHORBOL-13-ACETATE, 16561-29-8) 87%, 80%, 8%, not calculated; (Carcinogen: BENZO[A]PYRENE, 50-32-8, Dose [Inhibitor]: 100 UG IN 0.2 ML ACETONE ONCE 5 MINUTES BEFORE CARCINOGEN TREATMENT (STUDY DURATION: 31 WK), Route [Inhibitor]: DERMAL, Species: MOUSE, Strain/Sex: CD-1/FEMALE, Target Tissue: Type of Lesion: SKIN: PAPILLOMA, Dose [Carcinogen]: 400 NMOL IN 0.2 ML ACETONE ONCE, Promoter: 12-O-TETRADECANOYLPHORBOL-13-ACETATE, 16561-29-8) 90%, 78%, 13%, not calculated.
For `CCCCCCCCCCCCC/C=C/[C@@H](O)[C@H](COP(=O)(O)OCC[N+](C)(C)C)NC=O`, the “tumour outcome (control, treated, inhibition, significance)” value by setting is: (Carcinogen: 1,2-DIMETHYLHYDRAZINE DIHYDROCHLORIDE, 306-37-6, Dose [Inhibitor]: 0, 0.025 G/100 G DIET FOR 28 WK BEGINNING 1 WK POST CARCINOGEN TREATMENT (STUDY DURATION: 59 WK), Route [Inhibitor]: ORAL, Species: MOUSE, Strain/Sex: CF-1/FEMALE, Target Tissue: Type of Lesion: COLON: TUMOR, Dose [Carcinogen]: 20 MG/KG BW 1/WK FOR 6 WK, Promoter: NONE USED) 7/15 (47%), 2/10 (20%), 57%, p=0.08; (Carcinogen: 1,2-DIMETHYLHYDRAZINE DIHYDROCHLORIDE, 306-37-6, Dose [Inhibitor]: 0, 0.05 G/100 G DIET FOR 28 WK BEGINNING 1 WK POST CARCINOGEN TREATMENT (STUDY DURATION: 59 WK), Route [Inhibitor]: ORAL, Species: MOUSE, Strain/Sex: CF-1/FEMALE, Target Tissue: Type of Lesion: COLON: TUMOR, Dose [Carcinogen]: 20 MG/KG BW 1/WK FOR 6 WK, Promoter: NONE USED) 7/15 (47%), 3/14 (21%), 55%, p=0.08; (Carcinogen: 1,2-DIMETHYLHYDRAZINE DIHYDROCHLORIDE, 306-37-6, Dose [Inhibitor]: 0, 0.1 G/100 G DIET FOR 28 WK BEGINNING 1 WK POST CARCINOGEN TREATMENT (STUDY DURATION: 59 WK), Route [Inhibitor]: ORAL, Species: MOUSE, Strain/Sex: CF-1/FEMALE, Target Tissue: Type of Lesion: COLON: TUMOR, Dose [Carcinogen]: 20 MG/KG BW 1/WK FOR 6 WK, Promoter: NONE USED) 7/15 (47%), 2/10 (20%), 57%, p=0.08.
Take `N[C@@H](Cc1ccc(O)cn1)C(=O)O`: the “tumour outcome (control, treated, inhibition, significance)” value by setting is: (Carcinogen: 7,12-DIMETHYLBENZ[A]ANTHRACENE, 57-97-6, Dose [Inhibitor]: 0, 2 MG IN 50% ETHANOL 1/3 D BEGINNING 2 D POST CARCINOGEN TREATMENT (STUDY DURATION: 30 WK), Route [Inhibitor]: DERMAL, Species: MOUSE, Strain/Sex: TRANSGENIC/MALE, FEMALE, Target Tissue: Type of Lesion: SKIN: PAPILLOMA, Dose [Carcinogen]: 5 MG/KG/BW ONCE, Promoter: NONE USED) 100%, 45%, 55%, not calculated; (Carcinogen: METHYLNITROSOUREA, 684-93-5, Dose [Inhibitor]: 0, 2 MG/MOUSE 1/2 D FOR 12 WK BEGINNING 1 D POST CARCINOGEN TREATMENT (STUDY DURATION: 12 WK), Route [Inhibitor]: INTRAPERITONEAL, Species: MOUSE, Strain/Sex: TRANSGENIC/MALE, FEMALE, Target Tissue: Type of Lesion: FORESTOMACH: PAPILLOMA, Dose [Carcinogen]: 50 MG/KG IN 10 MILLIMOLAR CITRATE BUFFER, Promoter: NONE USED) 100%, 0%, 100%, not calculated.
As to `CC[C@H]1OC(=O)[C@H](C)[C@@H](O[C@H]2C[C@@](C)(OC)[C@@H](O)[C@H](C)O2)[C@H](C)[C@@H](O[C@@H]2O[C@H](C)C[C@H](N(C)C)[C@H]2O)[C@](C)(OC)C[C@@H](C)C(=O)[C@H](C)[C@@H](O)[C@]1(C)O`, the “tumour outcome (control, treated, inhibition, significance)” value is listed as 60%, 38%, 37%, not calculated (Carcinogen: N-NITROSOBIS(2-HYDROXYPROPYL)AMINE, 53609-64-6, Dose [Inhibitor]: 0, 0.02% IN DIET FOR 8 WK BEGINNING POST CARCINOGEN TREATMENT (STUDY DURATION: 20 WK), Route [Inhibitor]: ORAL, Species: RAT, Strain/Sex: WISTAR/MALE, Target Tissue: Type of Lesion: LUNG: ADENOCARCINOMA, Dose [Carcinogen]: 2,000 PPM IN DRINKING WATER FOR 12 WK, Promoter: NONE); 70%, 50%, 29%, not calculated (Carcinogen: N-NITROSOBIS(2-HYDROXYPROPYL)AMINE, 53609-64-6, Dose [Inhibitor]: 0, 0.02% IN DIET FOR 8 WK BEGINNING POST CARCINOGEN TREATMENT (STUDY DURATION: 20 WK), Route [Inhibitor]: ORAL, Species: RAT, Strain/Sex: WISTAR/MALE, Target Tissue: Type of Lesion: LUNG: ADENOMA, Dose [Carcinogen]: 2,000 PPM IN DRINKING WATER FOR 12 WK, Promoter: NONE); 20%, 13%, 35%, not calculated (Carcinogen: N-NITROSOBIS(2-HYDROXYPROPYL)AMINE, 53609-64-6, Dose [Inhibitor]: 0, 0.02% IN DIET FOR 8 WK BEGINNING POST CARCINOGEN TREATMENT (STUDY DURATION: 20 WK), Route [Inhibitor]: ORAL, Species: RAT, Strain/Sex: WISTAR/MALE, Target Tissue: Type of Lesion: LUNG: SQUAMOUS CELL CARCINOMA, Dose [Carcinogen]: 2,000 PPM IN DRINKING WATER FOR 12 WK, Promoter: NONE).
For `C[C@H]1[C@H](C)CC[C@]2(C(=O)O)CC[C@]3(C)C(=CC[C@@H]4[C@@]5(C)CC[C@H](O)C(C)(C)[C@@H]5CC[C@]43C)[C@H]12`, the “tumour outcome (control, treated, inhibition, significance)” value is, setting by setting: (Carcinogen: 7,12-DIMETHYLBENZ[A]ANTHRACENE : 57-97-6, Dose [Inhibitor]: 0, 2 UMOL IN 200 µL ACETONE 2/WK FOR 20 WK BEGINNING 1 WK POST CARCINOGEN DOSE (STUDY DURATION: 20 WK), Route [Inhibitor]: DERMAL, Species: MOUSE, Strain/Sex: CD-1/FEMALE, Target Tissue: Type of Lesion: SKIN: TUMOR, Dose [Carcinogen]: 200 NMOL IN 200 µL ACETONE ONCE, Promoter: 12-O-TETRADECANOYLPHORBOL-13-ACETATE, 16561-29-8) 93%, 62%, 33%, not significant; (Carcinogen: 7,12-DIMETHYLBENZ[A]ANTHRACENE, 57-97-6, Dose [Inhibitor]: 0, 0.1 UMOL IN 200 µL ACETONE 2/WK FOR 18 WK BEGINNING 1 WK POST CARCINOGEN DOSE (STUDY DURATION: 18 WK), Route [Inhibitor]: DERMAL, Species: MOUSE, Strain/Sex: CD-1/FEMALE, Target Tissue: Type of Lesion: SKIN: TUMOR, Dose [Carcinogen]: 200 NMOL IN 200 µL ACETONE ONCE, Promoter: 12-O-TETRADECANOYLPHORBOL-13-ACETATE, 16561-29-8) 87%, 87%, 0%, not significant; (Carcinogen: 7,12-DIMETHYLBENZ[A]ANTHRACENE, 57-97-6, Dose [Inhibitor]: 0, 0.3 UMOL IN 200 µL ACETONE 2/WK FOR 18 WK BEGINNING 1 WK POST CARCINOGEN DOSE (STUDY DURATION: 18 WK), Route [Inhibitor]: DERMAL, Species: MOUSE, Strain/Sex: CD-1/FEMALE, Target Tissue: Type of Lesion: SKIN: TUMOR, Dose [Carcinogen]: 200 NMOL IN 200 µL ACETONE ONCE, Promoter: 12-O-TETRADECANOYLPHORBOL-13-ACETATE, 16561-29-8) 87%, 93%, -7%, not significant; (Carcinogen: 7,12-DIMETHYLBENZ[A]ANTHRACENE, 57-97-6, Dose [Inhibitor]: 0, 1 UMOL IN 200 µL ACETONE 2/WK FOR 18 WK BEGINNING 1 WK POST CARCINOGEN DOSE (STUDY DURATION: 18 WK), Route [Inhibitor]: DERMAL, Species: MOUSE, Strain/Sex: CD-1/FEMALE, Target Tissue: Type of Lesion: SKIN: TUMOR, Dose [Carcinogen]: 200 NMOL IN 200 µL ACETONE ONCE, Promoter: 12-O-TETRADECANOYLPHORBOL-13-ACETATE, 16561-29-8) 87%, 77%, 11%, not significant; (Carcinogen: 7,12-DIMETHYLBENZ[A]ANTHRACENE, 57-97-6, Dose [Inhibitor]: 0, 1 UMOL IN 200 µL ACETONE 2/WK FOR 20 WK BEGINNING 1 WK POST CARCINOGEN DOSE (STUDY DURATION: 20 WK), Route [Inhibitor]: DERMAL, Species: (30,30)/(30,30), Strain/Sex: CD-1/FEMALE, Target Tissue: Type of Lesion: SKIN: TUMOR, Dose [Carcinogen]: 200 NMOL IN 200 µL ACETONE ONCE, Promoter: 12-O-TETRADECANOYLPHORBOL-13-ACETATE, 16561-29-8) 93%, 80%, 14%, not significant; (Carcinogen: 7,12-DIMETHYLBENZ[A]ANTHRACENE, 57-97-6, Dose [Inhibitor]: 0, 2 UMOL IN 200 µL ACETONE 2/WK FOR 18 WK BEGINNING 1 WK POST CARCINOGEN DOSE (STUDY DURATION: 18 WK), Route [Inhibitor]: DERMAL, Species: MOUSE, Strain/Sex: CD-1/FEMALE, Target Tissue: Type of Lesion: SKIN: TUMOR, Dose [Carcinogen]: 200 NMOL IN 200 µL ACETONE ONCE, Promoter: 12-O-TETRADECANOYLPHORBOL-13-ACETATE, 16561-29-8) 87%, 60%, 31%, not significant.
With `CCCCCCCCC/C=C/C=C/C=C/C=C/C=C/C=C/C(=O)OCC`, the “tumour outcome (control, treated, inhibition, significance)” value (Carcinogen: AZOXYMETHANE, 25843-45-2, Dose [Inhibitor]: 0, 0.7 ML 2/WK FOR DURATION OF STUDY BEGINNING 1 D PRIOR TO FIRST CARCINOGEN DOSE (STUDY DURATION: 36 WK), Route [Inhibitor]: GAVAGE, Species: RAT, Strain/Sex: F344/MALE, Target Tissue: Type of Lesion: COLON/RECTUM: ADENOMA OR CARCINOMA, Dose [Carcinogen]: 15 MG/KG 1/WK FOR 2 WK, Promoter: NONE USED) is reported as 20/40 (50%), 15/33 (45%), 10%, not significant.
